Experimental data reported in patent US8779142B2, “Azabicyclo compound and salt thereof” (Taiho Pharmaceutical Co., Ltd., priority 2009, dated 2014).

Legend:
[1] = system: SK-BR-3 cells; test: Measurement of cell growth inhibition (crystal violet staining method); assay type: cell-based; conditions: Homo sapiens; breast cancer SK-BR-3 cells, 72 hr culture with test substance
[2] = target: human HSP90 alpha protein (HSP90 N-terminal protein, amino acids 2-236) (Homo sapiens (Human), UniProt P07900); test: Measurement of HSP90-binding activity (AlphaScreen competitive assay, biotin-labeled geldanamycin); conditions: concentration inhibiting binding of biotin-labeled geldanamycin (40 nM) to purified HSP90 to 50% of control; read-out: HSP-binding activity IC50

IC50 [1] [nM]	IC50 [2] [nM]	Structure (SMILES)
130	200	NC(=O)c1ccc(-n2nc(C(F)(F)F)c3c(-n4cnc(-c5cccnc5)c4)ccnc32)c(NC2CCC2)c1 [Example 182, 3-(Cyclobutylamino)-4-{4-(4-(pyridin-3-yl)-1H-imidazol-1-yl)-3-(trifluoromethyl)-1H-pyrazolo[3,4-b]pyridin-1-yl}benzamide]
150	330	NC(=O)c1ccc(-n2nc(C(F)(F)F)c3c(-n4cnc(-c5cccnc5)c4)ccnc32)c(NC2CCCC2)c1 [Example 183, 3-(Cyclopentylamino)-4-{4-(4-(pyridin-3-yl)-1H-imidazol-1-yl)-3-(trifluoromethyl)-1H-pyrazolo[3,4-b]pyridin-1-yl}benzamide]
410	230	CCn1cc(-c2cn(-c3ccnc4c3c(C(F)(F)F)nn4-c3ccc(C(N)=O)cc3N)cn2)cn1 [Example 184, 3-Amino-4-{4-(4-(1-ethyl-1H-pyrazol-4-yl)-1H-imidazol-1-yl)-3-(trifluoromethyl)-1H-pyrazolo[3,4-b]pyridin-1-yl}benzamide]
210	190	CCNc1cc(C(N)=O)ccc1-n1nc(C(F)(F)F)c2c(-n3cnc(-c4cnn(CC)c4)c3)ccnc21 [Example 185, 4-{4-(4-(1-Ethyl-1H-pyrazol-4-yl)-1H-imidazol-1-yl)-3-(trifluoromethyl)-1H-pyrazolo[3,4-b]pyridin-1-yl}-3-(ethylamino)benzamide]
1930	800	CC(C)n1cc(-c2cn(-c3ccnc4c3c(C(F)(F)F)nn4-c3ccc(C(N)=O)cc3N)cn2)cn1 [Example 186, 3-Amino-4-{4-(4-(1-isopropyl-1H-pyrazol-4-yl)-1H-imidazol-1-yl)-3-(trifluoromethyl)-1H-pyrazolo[3,4-b]pyridin-1-yl}benzamide]
710	620	CCNc1cc(C(N)=O)ccc1-n1nc(C(F)(F)F)c2c(-n3cnc(-c4cnn(C(C)C)c4)c3)ccnc21 [Example 187, 3-(Ethylamino)-4-{4-(4-(1-isopropyl-1H-pyrazol-4-yl)-1H-imidazol-1-yl)-3-(trifluoromethyl)-1H-pyrazolo[3,4-b]pyridin-1-yl}benzamide]
